These results are taken from ChEMBL document CHEMBL1201862, “PubChem BioAssay data set” (2004).

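48-hour exposure; five concentrations; linearly interpolated endpoints. GI50 = concentration required for 50% inhibition of growth.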 Active and inactive are the calls of the source. No stated cut-off is given here; in the data, active = GI50 up to about 1.1 µM and inactive = higher.

Among the test systems are OVCAR-5; SN12C; NCI-H522; A498; OVCAR-3; CAKI-1; SK-MEL-28; UO-31; OVCAR-4; HCT-15; NCI/ADR-RES; EKVX; OVCAR-8; HCC 2998; SF-268; HT-29; LOX IMVI; NCI-H226; K562; TK-10.
Common to all, as to experiment: inhibition of tumour cell growth, NCI panel, 48 h

For the compound `O=C(NC(Cc1ccc(Br)cc1)C(=O)O)c1ccc(I)cc1` (configuration not stated), the GI50 with OVCAR-5 was > 100 µM (inactive); in the test with SN12C, > 100 µM (inactive); with NCI-H522, > 82.6 µM (inactive); in the test with A498, > 100 µM (inactive); in the test with OVCAR-3 it was > 69.7 µM (inactive); with CAKI-1, > 100 µM (inactive). Also, the GI50 with SK-MEL-28 was > 100 µM (inactive); with UO-31, > 100 µM (inactive); with OVCAR-4, 75.3 µM (inactive); in the test on HCT-15, more than 100 µM; in the test with NCI/ADR-RES, > 100 µM (inactive); in the test with EKVX, > 52 µM (inactive). Besides, the GI50 in the test with OVCAR-8 was > 100 µM (inactive); with HCC 2998, > 47.4 µM (inactive); in the test with SF-268, > 100 µM (inactive); with HT-29 it was > 100 µM (inactive); in the test with LOX IMVI, > 100 µM (inactive); in the test with NCI-H226, > 100 µM (inactive). Besides, the GI50 in the test with K562 is > 100 µM (inactive).
Turning to `C/C(=N\N)C(CN1CCOCC1)C(c1ccccc1)c1c(O)c2ccccc2oc1=O` (configuration not stated), the GI50 in the test with OVCAR-5 was > 100 µM (inactive); in the test on SN12C, > 100 µM (inactive); in the test on NCI-H522 it was > 52 µM (inactive); in the test with A498 it was 69.8 µM (inactive); in the test on OVCAR-3, > 61.4 µM (inactive); in the test on CAKI-1 it was > 100 µM (inactive). Further, the GI50 was > 100 µM (inactive) in the test on SK-MEL-28; 44.3 µM (inactive) in the test with UO-31; 77.3 µM (inactive) with OVCAR-4; more than 100 µM in the test on HCT-15; 65.9 µM (inactive) with NCI/ADR-RES; 83.6 µM (inactive) in the test on EKVX. The GI50 was > 90.6 µM (inactive) with OVCAR-8; > 100 µM (inactive) with HCC 2998; > 100 µM (inactive) with TK-10; > 100 µM (inactive) in the test on SF-268; > 100 µM (inactive) in the test with HT-29; 26.4 µM (inactive) with LOX IMVI. Moreover, the figures for the GI50 in the test with NCI-H226 and in the test on K562 were > 100 µM (inactive) and 47.6 µM (inactive), respectively.
For the compound `COc1ccc(N2C(=O)C3c4[nH]c5cccc(C)c5c4C4CCC(C(C)(C)C)CC4C3C2=O)cc1` (configuration not stated), the GI50 in the test with OVCAR-5, in the test with SN12C, with NCI-H522, with A498, in the test with OVCAR-3 and in the test with CAKI-1 was > 10 µM (inactive) each time. Moreover, the GI50 was > 10 µM (inactive) in the test with SK-MEL-28; > 10 µM (inactive) in the test on UO-31; 0.796 µM (active) with OVCAR-4; more than 10 µM in the test with HCT-15; > 10 µM (inactive) with NCI/ADR-RES; > 10 µM (inactive) with EKVX. Further, the GI50 in the test on OVCAR-8 is > 10 µM (inactive); in the test with HCC 2998, > 10 µM (inactive); in the test with TK-10, > 10 µM (inactive); with SF-268 it was > 10 µM (inactive); in the test on HT-29, > 10 µM (inactive); in the test on LOX IMVI, 8.3 µM (inactive). In addition, the GI50 with NCI-H226 and in the test with K562 was > 10 µM (inactive) throughout.
On to `O=C(CSCC(=O)N/N=C/c1cccc(C(F)(F)F)c1)N/N=C/c1cccc(C(F)(F)F)c1`, for which the GI50 with OVCAR-5, in the test on NCI-H522, in the test with A498, in the test with CAKI-1, in the test with SK-MEL-28 and with UO-31 was > 100 µM (inactive) each time. In addition, the GI50 is more than 100 µM with HCT-15; > 100 µM (inactive) with NCI/ADR-RES; > 100 µM (inactive) in the test with EKVX; 2.9 µM (inactive) in the test with OVCAR-8; > 100 µM (inactive) in the test with HCC 2998; > 100 µM (inactive) in the test on TK-10. The GI50 with SF-268, with HT-29, in the test with LOX IMVI, with NCI-H226 and with K562 was > 100 µM (inactive) throughout.
With `COc1ccc2cc1Oc1ccc(cc1)CC1c3c(cc(OC)c4c3Oc3cc5c(cc3O4)CCNC5C2)CCN1C` (configuration not stated), the GI50 with OVCAR-5 was 3.6 µM (inactive); in the test on SN12C, 1.91 µM (inactive); in the test with NCI-H522 it was 1.7 µM (inactive); in the test with A498, 2.1 µM (inactive); in the test on OVCAR-3, 2.69 µM (inactive); in the test with CAKI-1, 2.87 µM (inactive). Further, the GI50 in the test on SK-MEL-28 is 1.88 µM (inactive); with UO-31 it was 15.6 µM (inactive); in the test with OVCAR-4, 2.33 µM (inactive); with HCT-15 it was 1.77 µM; in the test on NCI/ADR-RES it was 1.92 µM (inactive); with EKVX, 1.94 µM (inactive). The GI50 with OVCAR-8 was 1.77 µM (inactive); in the test on HCC 2998, 1.2 µM (inactive); with TK-10 it was 1.86 µM (inactive); in the test with SF-268, 1.95 µM (inactive); with LOX IMVI it was 1.69 µM (inactive); in the test with NCI-H226, 5.52 µM (inactive).
Take `O=S(=O)(O)c1cc(S(=O)(=O)O)c2cc(/N=N/c3ccc(/N=N/c4ccc(/C=C/c5ccc(/N=[N+](/[O-])c6ccc(/C=C/c7ccc(/N=N/c8ccc(/N=N/c9ccc%10cc(S(=O)(=O)O)cc(S(=O)(=O)O)c%10c9)cc8)cc7S(=O)(=O)O)c(S(=O)(=O)O)c6)cc5S(=O)(=O)O)c(S(=O)(=O)O)c4)cc3)ccc2c1`: the GI50 is > 79.3 µM (inactive) in the test with OVCAR-5; > 54.1 µM (inactive) with SN12C; > 55.8 µM (inactive) with NCI-H522; > 100 µM (inactive) with A498; > 31.6 µM (inactive) in the test on OVCAR-3; > 100 µM (inactive) with SK-MEL-28. The GI50 in the test with UO-31 is 70.8 µM (inactive); with OVCAR-4, > 48.1 µM (inactive); in the test on HCT-15 it was 52.6 µM; in the test on NCI/ADR-RES, > 100 µM (inactive); in the test with EKVX, 82.6 µM (inactive); in the test with OVCAR-8 it was > 78.7 µM (inactive). For the same compound, the GI50 in the test with HCC 2998 is > 61.2 µM (inactive); with SF-268, > 69 µM (inactive); with HT-29, > 55.1 µM (inactive); with LOX IMVI, > 59.7 µM (inactive); in the test on NCI-H226, > 50.5 µM (inactive); with K562, > 100 µM (inactive).
